Measurements taken from patent US20200078468A1, “NEUROTENSIN RECEPTOR BINDING CONJUGATES AND FORMULATIONS THEREOF” (priority 2016, published 2020).
Like-named read-outs stand apart in the source and are kept apart here. Numbered stars: 1 amine (or outer) side, 2 acyl side, 3 side chain; on linkers, the order of the positions; unused ones are H or OH. Bridge positions count the residues as written; N and C are the ends. Square brackets hold non-standard residues; d marks the D form. Peptide text beside a SMILES is read from it. I, II: the chains in the order shown. * marks the point of attachment. MMAE(N-CO2CH2CH2S) = CC[C@H](C)[C@@H]([C@@H](CC(=O)N1CCC[C@H]1[C@H](OC)[C@@H](C)C(=O)N[C@H](C)[C@@H](O)c1ccccc1)OC)N(C)C(=O)[C@@H](NC(=O)[C@H](C(C)C)N(C)C(=O)OCCS*)C(C)C; Propanoyl(3-SS-DM1) = COc1cc2cc(c1Cl)N(C)C(=O)C[C@H](OC(=O)[C@H](C)N(C)C(=O)CCSSCCC(=O)*)[C@]1(C)O[C@H]1[C@H](C)[C@@H]1C[C@@](O)(NC(=O)O1)[C@H](OC)/C=C/C=C(\C)C2; Hexanoyl(6-succinimido-3yl) = O=C1CC([*:1])C(=O)N1CCCCCC(=O)[*:2]; Dolaproine = CO[C@@H]([C@@H]1CCCN1)[C@@H](C)C(=O)O; Dil = CC[C@H](C)[C@H](NC)[C@@H](CC(=O)O)OC; PABC = O=C(OCc1ccc(N[*:1])cc1)[*:2]; NMeR = CN[C@@H](CCCNC(=N)N)C(=O)O; X1 = C[C@@H](N*)[C@@H](O)c1ccccc1; Cit = NC(=O)NCCC[C@H](N)C(=O)O; Pen = CC(C)(S)[C@H](N)C(=O)O; Tle = CC(C)(C)[C@H](N)C(=O)O; NMeV = CN[C@H](C(=O)O)C(C)C

What was measured:
[1] = system: HT-29 cells (human colon cancer cells); experiment: inhibition of HT29 cell proliferation (Cell Titer Glo 2.0); assay type: cell-based; settings: 72 h
Method: Conjugates were assessed in an in vitro assay evaluating inhibition of cell proliferation. HT-29 cells (human colon cancer cells) were seeded in white walled 96-well plates at 10,000 cells per well in 100 μl McCoy's 5a (Invitrogen) media supplemented with 10% Fetal Bovine Serum (Invitrogen). After allowing cells to settle overnight, 5 μl of 20× test article was added to each well in replicate and incubated for 72 h. 72 hours after addition of compound, plates were removed from incubator and allowed to cool to room temperature. 50 μl of Cell Titer Glo 2.0 (Promega) was added to each well, incubated for 15 minutes, and plates were read on Glomax luminometer (Promega) using the Cell Titer Glo protocol. Raw luminometer readings for each plate were transformed by dividing the experimental well into the mean of untreated control wells. This is reported as ratio of untreated, and is plotted with Prism 6 software (Graph Pad) and fitted with a 4-parameter, variable slope curve.
Conjugates are assessed for receptor-dependent cytotoxicity by the difference between an NTSR1-targeting conjugate, and the corresponding conjugate with the same linker moiety and active agent where the NTSR1-targeting domain has been scrambled.

[2] = target: T1, human NTSR1 (Homo sapiens, UniProt P30989); experiment: radioligand-receptor binding assay, [125I] labeled neurotensin (Eurofins Panlabs)
T1 construct: host or cells: HEK-293 cells (membrane preparations)
How it was run: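 Membranes from HEK-293 cells expressing human NTSR1 incubated 45 min with 0.02 nM [125I]neurotensin and conjugate in 6-point 3-fold dilutions from 100 or 10 nM; bound radioactivity counted after filtration. IC50 by nonlinear regression, converted to Ki via Cheng–Prusoff using historical ligand Kd.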

[3] = system: SW48 (human colon cancer cells); experiment: inhibition of SW48 cell proliferation (CellTiter Glo); assay type: cell-based; settings: 72 hrs, read-out: SW-48 proliferation IC50
How it was run: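 Cells plated at 5,000/well and grown 24 hrs were exposed to conjugates for 72 hrs at 37° C, 5% CO2, in a ten-point three-fold series starting at 10 μM; vehicle was 0.01% DMSO. Proliferation was read by CellTiter Glo. % inhibition was taken relative to vehicle, with IC50 from four-parameter nonlinear regression.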

[4] = [125I] neurotensin 0.02 nM, membranes from NTSR1 expressing HEK-293 cells, 45 minute incubation, Cheng and Prusoff, read-out: NTSR1 binding Ki

T1 sequence (P30989 whole entry): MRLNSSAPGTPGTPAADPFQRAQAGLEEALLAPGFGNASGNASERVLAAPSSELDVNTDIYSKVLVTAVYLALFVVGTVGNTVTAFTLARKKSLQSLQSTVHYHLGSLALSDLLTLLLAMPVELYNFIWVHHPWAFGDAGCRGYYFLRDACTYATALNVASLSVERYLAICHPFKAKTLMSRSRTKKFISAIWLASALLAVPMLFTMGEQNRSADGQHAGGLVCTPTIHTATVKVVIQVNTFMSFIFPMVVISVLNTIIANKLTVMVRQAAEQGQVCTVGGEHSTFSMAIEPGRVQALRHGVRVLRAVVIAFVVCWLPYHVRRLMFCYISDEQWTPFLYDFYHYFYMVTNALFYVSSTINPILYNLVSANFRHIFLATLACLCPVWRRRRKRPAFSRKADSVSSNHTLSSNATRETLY

Row | SMILES | IC50 ([1]; NTSR1 targeted compound) [nM] | Ki [2, 4] [nM] | IC50 ([3]; NTSR1 targeted compound) [nM] | IC50 ([1]; NTSR1 scrambled compound) [nM] | IC50 ([3]; NTSR1 scrambled compound) [nM] | Ki [2] [nM]
1 | COc1cc2cc(c1Cl)N(C)C(=O)C[C@H](OC(=O)[C@H](C)N(C)C(=O)CCSC1CC(=O)N(CCCNC(=O)CNC(=O)[C@H](CC(C)C)NC(=O)[C@H](Cc3ccccc3)NC(=O)CNC(=O)CCC(=O)NCCCC[C@H](NC(C)=O)C(=O)N3CCC[C@H]3C(=O)N(C)[C@@H](CCCNC(=N)N)C(=O)N[C@@H](CCCNC(=N)N)C(=O)N3CCC[C@H]3C(=O)N[C@@H](Cc3ccc(O)cc3)C(=O)N[C@H](C(=O)N[C@@H](CC(C)C)C(=O)O)C(C)(C)C)C1=O)[C@]1(C)O[C@H]1[C@H](C)[C@@H]1C[C@@](O)(NC(=O)O1)[C@H](OC)/C=C/C=C(\C)C2 (stereo partly drawn) [Compound 14] | 17 | 0.78 | 2.2 |  |  | 
2 | COc1cc2cc(c1Cl)N(C)C(=O)C[C@H](OC(=O)[C@H](C)N(C)C(=O)CCSC1CC(=O)N(CCCNC(=O)CNC(=O)[C@H](CC(C)C)NC(=O)[C@H](Cc3ccccc3)NC(=O)CNC(=O)CCC(=O)NCCCC[C@H](NC(C)=O)C(=O)N3CCC[C@H]3C(=O)N[C@@H](CC(C)C)C(=O)N3CCC[C@H]3C(=O)N(C)[C@@H](CCCNC(=N)N)C(=O)N[C@H](C(=O)N[C@@H](CCCNC(=N)N)C(=O)N[C@@H](Cc3ccc(O)cc3)C(=O)O)C(C)(C)C)C1=O)[C@]1(C)O[C@H]1[C@H](C)[C@@H]1C[C@@](O)(NC(=O)O1)[C@H](OC)/C=C/C=C(\C)C2 (stereo partly drawn) [Compound 79] |  | 980 |  | 97 | 76 | 
3 | CC[C@H](C)[C@@H]([C@@H](CC(=O)N1CCC[C@H]1[C@H](OC)[C@@H](C)C(=O)N[C@H](C)[C@@H](O)c1ccccc1)OC)N(C)C(=O)[C@@H](NC(=O)[C@H](C(C)C)N(C)C(=O)OCc1ccc(NC(=O)[C@H](CCCNC(N)=O)NC(=O)[C@@H](NC(=O)CCCCCN2C(=O)CC(SC(C)(C)[C@H](NC(C)=O)C(=O)N3CCC[C@H]3C(=O)N[C@@H](CCCNC(=N)N)C(=O)N[C@@H](CCCNC(=N)N)C(=O)N3CCC[C@H]3C(=O)N[C@@H](Cc3ccc(O)cc3)C(=O)N[C@H](C(=O)N[C@@H](CC(C)C)C(=O)O)C(C)(C)C)C2=O)C(C)C)cc1)C(C)C (stereo partly drawn) [Compound 53] (I: Ac-[Pen]PRRPY[Tle]L-OH / II: V[Cit][PABC][NMeV]V[Dil][Dolaproine]-X1; linker I:1-II:N via Hexanoyl(6-succinimido-3yl)) | 16 | 3.15 | 17 |  |  | 
4 | COc1cc2cc(c1Cl)N(C)C(=O)C[C@H](OC(=O)[C@H](C)N(C)C(=O)CCSC1CC(=O)N(CCCCCC(=O)NCCCC[C@H](NC(C)=O)C(=O)N3CCC[C@H]3C(=O)N(C)[C@@H](CCCNC(=N)N)C(=O)N[C@@H](CCCNC(=N)N)C(=O)N3CCC[C@H]3C(=O)N[C@@H](Cc3ccc(O)cc3)C(=O)N[C@H](C(=O)N[C@@H](CC(C)C)C(=O)O)C(C)(C)C)C1=O)[C@]1(C)O[C@H]1[C@H](C)[C@@H]1C[C@@](O)(NC(=O)O1)[C@H](OC)/C=C/C=C(\C)C2 (stereo partly drawn) [Compound 15] | 96 | 1.08 | 70 |  |  | 
5 | CC[C@H](C)[C@@H]([C@@H](CC(=O)N1CCC[C@H]1[C@H](OC)[C@@H](C)C(=O)N[C@H](C)[C@@H](O)c1ccccc1)OC)N(C)C(=O)[C@@H](NC(=O)[C@H](C(C)C)N(C)C(=O)OCCSSC(C)(C)[C@H](NC(C)=O)C(=O)N1CCC[C@H]1C(=O)N[C@@H](CCCNC(=N)N)C(=O)N[C@@H](CCCNC(=N)N)C(=O)N1CCC[C@H]1C(=O)N[C@@H](Cc1ccc(O)cc1)C(=O)N[C@H](C(=O)N[C@@H](CC(C)C)C(=O)O)C(C)(C)C)C(C)C [Compound 55] (Ac-[Pen](MMAE(N-CO2CH2CH2S))PRRPY[Tle]L-OH) | 1.9 | 1.53 | 13 |  |  | 
6 | COc1cc2cc(c1Cl)N(C)C(=O)C[C@H](OC(=O)[C@H](C)N(C)C(=O)CCSSCCC(=O)NCCCC[C@H](NC(C)=O)C(=O)N1CCC[C@H]1C(=O)N(C)[C@@H](CCCNC(=N)N)C(=O)N[C@@H](CCCNC(=N)N)C(=O)N1CCC[C@H]1C(=O)N[C@@H](Cc1ccc(O)cc1)C(=O)N[C@H](C(=O)N[C@@H](CC(C)C)C(=O)O)C(C)(C)C)[C@]1(C)O[C@H]1[C@H](C)[C@@H]1C[C@@](O)(NC(=O)O1)[C@H](OC)/C=C/C=C(\C)C2 [Compound 13] (Ac-K(Propanoyl(3-SS-DM1))P[NMeR]RPY[Tle]L-OH) | 4.9 | 0.48 | 1.6 |  |  | 
7 | CC[C@H](C)[C@@H]([C@@H](CC(=O)N1CCC[C@H]1[C@H](OC)[C@@H](C)C(=O)N[C@H](C)[C@@H](O)c1ccccc1)OC)N(C)C(=O)[C@@H](NC(=O)[C@H](C(C)C)N(C)C(=O)OCc1ccc(NC(=O)[C@H](CCCNC(N)=O)NC(=O)[C@@H](NC(=O)CCCCCN2C(=O)CC(SCCC(=O)NCCCC[C@H](NC(C)=O)C(=O)N3CCC[C@H]3C(=O)N(C)[C@@H](CCCNC(=N)N)C(=O)N[C@@H](CCCNC(=N)N)C(=O)N3CCC[C@H]3C(=O)N[C@@H](Cc3ccc(O)cc3)C(=O)N[C@H](C(=O)N[C@@H](CC(C)C)C(=O)O)C(C)(C)C)C2=O)C(C)C)cc1)C(C)C (stereo partly drawn) [Compound 54] | 6.2 |  | 22 |  |  | 1.45
8 | CC[C@H](C)[C@@H]([C@@H](CC(=O)N1CCC[C@H]1[C@H](OC)[C@@H](C)C(=O)N[C@H](C)[C@@H](O)c1ccccc1)OC)N(C)C(=O)[C@@H](NC(=O)[C@H](C(C)C)N(C)C(=O)OCCSSCCC(=O)NCCCC[C@H](NC(C)=O)C(=O)N1CCC[C@H]1C(=O)N(C)[C@@H](CCCNC(=N)N)C(=O)N[C@@H](CCCNC(=N)N)C(=O)N1CCC[C@H]1C(=O)N[C@@H](Cc1ccc(O)cc1)C(=O)N[C@H](C(=O)N[C@@H](CC(C)C)C(=O)O)C(C)(C)C)C(C)C [Compound 56] | 0.42 | 1.15 | 4.3 |  |  | 
